In one experiment the target is T1, serotonin 2 receptor (Rattus norvegicus, UniProt P14842).
T1 construct: To the receptor fraction of the cerebral cortex were added a test compound and 0.3 nM of [^3H] ketanserin; from tissue; host or cells: rat cerebral cortex membrane fraction
Kind of experiment: Binding test on [3H] ketanserin, cerebral cortex receptor fraction. Set-up: species or system SD rats. The settings on record: 0.3 nM [3H] ketanserin, 37° C. 15 min, read-out: 5HT2.

The target in the next experiment is T2, serotonin 1A receptor (Rattus norvegicus, UniProt P19327).
T2 construct: To the receptor fraction of the hippocampus were added a test compound and 0.5 nM of [^3H]; 8-hydroxy-dipropylaminotetralin; from tissue; host or cells: rat hippocampus membrane fraction
T2 sequence (P19327 1-422): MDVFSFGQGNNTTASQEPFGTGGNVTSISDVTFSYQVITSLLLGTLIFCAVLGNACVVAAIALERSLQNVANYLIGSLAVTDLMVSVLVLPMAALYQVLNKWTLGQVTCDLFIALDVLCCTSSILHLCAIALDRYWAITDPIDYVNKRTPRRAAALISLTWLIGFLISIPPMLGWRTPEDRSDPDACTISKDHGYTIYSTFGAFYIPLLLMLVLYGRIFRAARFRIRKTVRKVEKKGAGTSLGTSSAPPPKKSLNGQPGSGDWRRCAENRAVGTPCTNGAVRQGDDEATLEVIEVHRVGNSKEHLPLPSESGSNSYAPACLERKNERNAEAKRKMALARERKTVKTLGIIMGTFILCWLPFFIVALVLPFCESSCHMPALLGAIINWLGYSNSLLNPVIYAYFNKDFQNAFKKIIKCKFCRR
Kind of experiment: Binding test on [3H] 8-hydroxy-dipropylaminotetralin, hippocampus receptor fraction. Set-up: species or system SD rats. The note with it: rat hippocampus receptor fraction, 0.5 nM [3H] 8-OH-DPAT, room temperature 30 min; read-out: 5HT1.

Where a name gives a salt, the structure may show the parent alone.

T1 sequence (P14842 whole entry): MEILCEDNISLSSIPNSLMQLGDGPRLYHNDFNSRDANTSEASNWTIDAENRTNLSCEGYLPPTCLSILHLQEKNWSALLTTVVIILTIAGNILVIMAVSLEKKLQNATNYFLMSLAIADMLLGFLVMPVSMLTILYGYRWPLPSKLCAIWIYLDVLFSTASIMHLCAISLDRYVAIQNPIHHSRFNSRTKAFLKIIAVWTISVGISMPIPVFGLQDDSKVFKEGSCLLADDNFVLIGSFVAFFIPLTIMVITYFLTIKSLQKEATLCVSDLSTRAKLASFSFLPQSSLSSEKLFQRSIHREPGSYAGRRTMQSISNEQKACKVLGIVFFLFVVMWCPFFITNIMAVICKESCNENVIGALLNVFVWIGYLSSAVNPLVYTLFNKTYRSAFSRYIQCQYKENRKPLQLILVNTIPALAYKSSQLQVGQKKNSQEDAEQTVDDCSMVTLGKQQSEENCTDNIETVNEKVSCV
Protocol for serotonin 2 receptor: Methysergide maleate was dissolved in distilled water before using.
Use was made of SD rats aged 6 to 8 weeks.
The rats were sacrificed by dcapitation to extirpate the cerebra.
Each mixture was homogenized by using a Teflon glass homogenizer and centrifuged as 1,000× g for 10 min. The supernatant thus obtained was further centrifuged at 20,000× g for 20 min. […] After centrifuging at 20,000× g for 20 min, the obtained precipitate was further suspended and centrifuged twice each in the same manner. […] This receptor fraction was stored at −80° C. until using.
To the receptor fraction of the cerebral cortex were added a test compound and 0.3 nM of [^3H] ketanserin and the resultant mixture was incubated at 37° C. for 15 min. Next, it was filtered through a glass filter with the use of a cell harvester. After washing the glass filter with 50 mM Tris hydrochloride (pH 7.4), the radioactivity of the receptor was measured with a liquid scintillation counter. The binding detected in the presence of 1 μM of methysergide was referred to as the nonspecific binding.
IC50 was calculated by the probit method, while Ki was determined in accordance with the following formula: Ki=IC50(1+c/Kd) wherein c represents the concentration of the radioisotope-labeled compound, and Kd represents the dissociation constant of the radioisotope-labeled compound with respect to the receptor determined by Scatchard's analysis.

Take `CCN1CCN(c2nc(-c3ccc(C4=CCOCC4)cc3)cc3ccsc23)CC1` [Example 266, 5-[4-(5,6-dihydro-2H-pyran-4-yl)phenyl]-7-(4-ethylpiperazin-1-yl)thieno[2,3-c]pyridine Hydrochloride]: the figures for the Ki at serotonin 2 receptor and at serotonin 1A receptor were 13.8 nM and 97.3 nM, respectively.

As to `CCCC(=O)Nc1ccc(-c2cc3ccccc3c(N3CCN(CC)CC3)n2)cn1` [Example 128, 3-(2-propylcarbonylaminopyridin-5-yl)-1-(4-ethylpiperazin-1-yl)isoquinoline hydrochloride], the Ki at serotonin 2 receptor amounted to 3 nM; on serotonin 1A receptor it was 22.2 nM.

In the case of `CCN1CCN(c2nc(-c3ccc(C(O)C(C)(C)CO)cc3)cc3ccccc23)CC1` (centres unmarked) [Example 391, 1-(4-Ethylpiperazin-1-yl)-3-[4-(1,3-Dihydroxy-2,2-Dimethylpropyl)Phenyl]Isoquinoline Dihydrochloride], the Ki turned out to be 12.8 nM on serotonin 2 receptor and 3.6 nM at serotonin 1A receptor.

In the case of `CCN1CCN(c2nc(/C=C/c3ccccc3)cc3ccccc23)CC1` [Example 189, 1-(1-Ethylpiperazin-4-Yl)-3-(Trans-2-Phenylethenyl)Isoquinoline Dihydrochloride], the Ki at serotonin 2 receptor was determined as 0.44 nM; on serotonin 1A receptor, 37.2 nM.

For the molecule `CCN1CCN(c2nc(-c3ccc(CCCO)cn3)cc3ccccc23)CC1` [Example 134, 1-(1-Ethylpiperazin-4-yl)-3-[5-(3-Hydroxypropyl)Pyridin-2-yl]Isoquinoline], the figures for the Ki on serotonin 2 receptor and on serotonin 1A receptor were 12.4 nM and 4.9 nM, respectively.

For the molecule `CCN1CCN(c2nc(-c3ccc(CCC(C)(C)O)nc3)cc3ccccc23)CC1` [Example 138, 1-(1-Ethylpiperazin-4-yl)-3-[2-(3-Hydroxy-3-Methylbutyl)Pyridin-5-yl]Isoquinoline Oxalate], the results for the Ki at serotonin 2 receptor and on serotonin 1A receptor were 5.5 nM and 13.5 nM, respectively.

On to `CCN1CCN(c2nc(-c3ccc(C4CCOCC4)nc3)cc3ccccc23)CC1` [Example 156, 3-[2-(tetrahydropyran-4-yl)pyridin-5-yl]-1-(4-ethylpiperazin-1-yl)isoquinoline oxalate], for which the Ki on serotonin 2 receptor was found to be 0.01 nM; on serotonin 1A receptor it was 10.9 nM.

As to `CCN1CCN(c2nc(-c3ccc(CCC(C)OC)nc3)cc3ccccc23)CC1` (centres unmarked) [Example 144, 1-(1-Ethylpiperazin-4-yl)-3-[2-(3-Methoxybutyl)Pyridin-5-yl]Isoquinoline Oxalate], the Ki at serotonin 2 receptor turned out to be 12.4 nM; on serotonin 1A receptor it was 4.8 nM.

`CCN1CCN(c2nc(-c3ccc(OC)c(OC)c3)cc3ccccc23)CC1` [Example 14, 3-(3,4-dimethoxyphenyl)-1-(4-ethylpiperazin-1-yl)isoquinoline Dihydrochloride]: the Ki at serotonin 2 receptor was 35 nM; at serotonin 1A receptor, 23 nM.

On to `CCN1CCN(c2nc(-c3ccc(OCCO)cc3)cc3ccoc23)CC1` [Example 301, 7-(1-Ethylpiperazin-4-yl)-5-[4-(2-hydroxyethoxy)phenyl]furo[2,3-c]pyridine oxalate], for which the Ki amounted to 12.7 nM at serotonin 2 receptor and 9.15 nM at serotonin 1A receptor.

On to `CCN1CCN(c2nc(COc3ccc(OC)cc3)cc3ccccc23)CC1` [Example 424, 1-(4-ethylpiperazin-1-yl)-3-(4-methoxyphenoxymethyl)isoquinoline Hydrochloride], for which the Ki on serotonin 2 receptor stood at 1.93 nM; on serotonin 1A receptor, 61.6 nM.

Take `CCN1CCN(c2nc(-c3ccc(OCC(C)=O)cc3)cc3ccccc23)CC1` [Example 47, 1-(1-Ethylpiperazin-4-Yl)-3-(4-Acetonyloxyphenyl)Isoquinoline]: the Ki turned out to be 2.6 nM on serotonin 2 receptor and 25.3 nM on serotonin 1A receptor.

For the molecule `CCN1CCN(c2nc(-c3ccc(S(=O)(=O)N4CCSCC4)cc3)cc3ccccc23)CC1` [Example 76, 3-[(4-Thiomorpholinyl)Sulfonylphenyl]-1-(4-Ethylpiperazin-1-Yl)Isoquinoline Hydrochloride], the Ki on serotonin 2 receptor was found to be 8.9 nM; at serotonin 1A receptor, 5.7 nM.

In the case of `CCCCC(O)c1ccc(-c2cc3ccsc3c(N3CCN(CC)CC3)n2)cc1` (centres unmarked) [Example 254, 7-(1-ethylpiperazin-4-yl)-5-[4-(1-hydroxypentyl)phenyl]thieno[2,3-c]pyridine Dihydrochloride], the Ki stood at 29.2 nM on serotonin 2 receptor and 59.7 nM at serotonin 1A receptor.

As to `CN1CCN(c2nc(-c3ccc(OCCO)cc3)cc3ccccc23)CC1` [Example 3, 1-(1-methylpiperazin-4-yl)-3-[4-(2-hydroxyethoxy)phenyl]isoquinoline], the Ki on serotonin 2 receptor is 3.8 nM; on serotonin 1A receptor, 65 nM.

On to `CCN1CCN(c2nc(C3CCc4ccc(OC)cc43)cc3ccccc23)CC1` (centres unmarked) [Example 114, 3-(6-Methoxyindan-1-yl)-1-(4-ethylpiperazin-1-yl)isoquinoline Oxalate], for which the Ki turned out to be 49.9 nM at serotonin 2 receptor and 167 nM at serotonin 1A receptor.

On to `CCN1CCN(c2nc(C#Cc3cncc(CCCOC)c3)cc3ccccc23)CC1` [Example 186, 1-(1-Ethylpiperazin-4-Yl)-3-[3-(3-Methoxypropyl)-5-Pyridyl]Ethynylisoquinoline], for which the Ki at serotonin 2 receptor was 4.5 nM; at serotonin 1A receptor, 2.83 nM.

For `CCN1CCN(c2nc(-c3ccc(CCCO)c(C#N)c3)cc3ccsc23)CC1` [Example 262, 5-[4-(3-hydroxypropyl)-3-cyanophenyl]-7-(4-ethylpiperazin-1-yl)thieno[2,3-c]pyridine Oxalate], the Ki on serotonin 2 receptor is 0.25 nM; at serotonin 1A receptor, 9.04 nM.

Consider `CCN1CCN(c2nc(-c3ccc4c(c3)CCC4O)cc3ccccc23)CC1` (centres unmarked) [Example 415, 1-(4-ethylpiperazin-1-yl)-3-(1-hydroxyindan-5-yl)isoquinoline], for which the Ki came to 11.6 nM at serotonin 2 receptor and 3.6 nM on serotonin 1A receptor.

As to `CCN1CCN(c2nc(/C=C/c3ccc(OCCO)cc3)cc3ccccc23)CC1` [Example 198, 1-(1-Ethylpiperazin-4-Yl)-3-[(E)-4-(2-Hydroxyethoxy)Styryl]Isoquinoline Oxalate], the Ki at serotonin 2 receptor was 9.08 nM; on serotonin 1A receptor it was 45.5 nM.

In the case of `CCN1CCN(c2nc(-c3ccc(OC)cc3)cc3cccc(F)c23)CC1` [Example 233, 1-(1-ethylpiperazin-4-yl)-8-fluoro-3-(4-methoxyphenyl)isoquinoline dihydrochloride], the Ki came out at 1.97 nM at serotonin 2 receptor and 200 nM at serotonin 1A receptor.

As to `CCN1CCN(c2nc(-c3cnc(CCCOC)s3)cc3ccccc23)CC1` [Example 172, 1-(1-ethylpiperazin-4-yl)-3-[2-(3-methoxypropyl)thiazol-5-yl]isoquinoline oxalate], the Ki at serotonin 2 receptor turned out to be 36.2 nM; at serotonin 1A receptor, 4.7 nM.

With `CCN1CCN(c2nc(/C=C/c3cccc(OCCO)c3)cc3ccsc23)CC1` [Example 430, 7-(4-ethylpiperazin-1-yl)-5-[3-(2-hydroxyethoxy)styryl]thieno [2,3-c]pyridine hydrochloride], the results for the Ki on serotonin 2 receptor and on serotonin 1A receptor were 11.7 nM and 2.48 nM, respectively.

As for `CCN1CCN(c2nc(/C=C\c3ccc(OC)cc3)cc3ccccc23)CC1` [Example 191, 1-(1-Ethylpiperazin-4-Yl)-3-[Cis-2-(4-Methoxyphenyl)Ethenyl]Isoquinoline Oxalate], the Ki worked out at 0.93 nM at serotonin 2 receptor and 13 nM at serotonin 1A receptor.

For `CCN1CCN(c2nc(-c3ccc(S(=O)(=O)N4CCOCC4)cc3)cc3ccccc23)CC1` [Example 75, 3-[(4-Morpholinyl)Sulfonylphenyl]-1-(4-Ethylpiperazin-1-Yl)Isoquinoline Hydrochloride], the results for the Ki on serotonin 2 receptor and at serotonin 1A receptor were 10 nM and 7.7 nM, respectively.

As for `CCN1CCN(c2nc(-c3ccc(CCC(C)O)cc3)cc3sccc23)CC1` (centres unmarked) [Example 285, 4-(1-ethylpiperazin-4-yl)-6-[4-(3-hydroxybutyl)phenyl]thieno[3,2-c]pyridine hydrochloride], the values for the Ki at serotonin 2 receptor and at serotonin 1A receptor were 1.96 nM and 22.2 nM, respectively.

In the case of `CCN1CCN(c2nc(-c3cccc(OCCO)c3)cc3sccc23)CC1` [Example 284, 4-(1-ethylpiperazin-4-yl)-6-[3-(2-hydroxyethoxy)phenyl]thieno-[3,2-c]pyridine dihydrochloride], the Ki on serotonin 2 receptor turned out to be 75.9 nM; on serotonin 1A receptor, 91.9 nM.

As for `CCNS(=O)(=O)Cc1ccc(-c2cc3ccccc3c(N3CCN(CC)CC3)n2)cc1` [Example 80, 3-(4-Ethylaminosulfonylmethylphenyl)-1-(4-Ethylpiperazin-1-Yl)Isoquinoline Hydrochloride], the Ki at serotonin 2 receptor stood at 16.3 nM; at serotonin 1A receptor, 0.8 nM.

For `CCN1CCN(c2nc(/C=C/c3ccncc3)cc3ccccc23)CC1` [Example 210, 1-(1-Ethylpiperazin-4-Yl)-3-[Trans-2-(4-Pyridyl)Ethenyl]Isoquinoline], the Ki on serotonin 2 receptor was determined as 3.95 nM; on serotonin 1A receptor, 6.56 nM.

As for `CCN1CCN(c2nc(-c3ccc(CCCO)c(Cl)c3)cc3ccccc23)CC1` [Example 30, 3-[3-chloro-4-(3-hydroxypropyl)phenyl]-1-(4-ethylpiperazin-1-yl)isoquinoline hydrochloride], the Ki on serotonin 2 receptor is 6.3 nM; at serotonin 1A receptor, 10.7 nM.

`CCN1CCN(c2nc(N3CCN(c4ccccn4)CC3)cc3ccccc23)CC1` [Example 159, 1-(1-ethylpiperazin-4-yl)-3-[1-(2-pyridyl)piperazin-4-yl]isoquinoline]: the Ki at serotonin 2 receptor is 13.2 nM; on serotonin 1A receptor, 0.65 nM.

Values taken from US6875761B2 (Eisai Co., Ltd., priority 1997, dated 2005).
